Laboratory results reported in patent publication US20040137574A1, “Novel polypeptide” (Pfizer Inc, priority 2000, published 2004).

Legend:
PFI-019 = target: T1, PFI-019 (Homo sapiens, UniProt Q96P68); assay: FLIPR cell-based assay for agonist activation of PFI-019 (calcium fluorescence, Fluo3); conditions: PFI-019-transfected HEK 293 cells expressing mouse Gα15, fluorescence intensity versus time
T1 construct: amplify the PFI-019 coding region from human genomic DNA; N-terminal polyhistidine/Xpress leader of vector pcDNA4/HisMax-TOPO (inferred from the vector name); expressed in transfected cells; host or cells: HEK293 cells expressing the mouse Galpha15 gene, transiently transfected
Description: Fluorescence Imaging Plate Reader (FLIPR®) technology was employed as a means to detect activation of PFI-019 by agonists in a cell-based assay.
(§1) 5×10^6 Human Embryonic Kidney (HEK) 293 cells expressing the mouse Gα15 gene (from here on called '293 cells'), were transiently transfected with 7.5 μg of PFI-019 (contained within the pcDNA4HIS-max-TOPO (Invitrogen) plasmid) vector, or vector alone, using Lipofectamine Plus® reagent (Gibco BRL) as per the manufacturer's protocol. The plasmid pcDNA4HIS-max-TOPO was used as it contains elements that up-regulate the level of gene transcription over standard pcDNA3.1 vectors. 24 hrs post-transfection, the cells were detached from the flask using Trypsin/EDTA solution (LTI) and seeded into a black sided, Poly-D-lysine-treated, 96-well plate (Becton Dickinson) at 5×10^4 cells/well density. The plates were left overnight to allow the cells to adhere to the bottom of the wells. […] The FLIPR® processing involved reading the fluorescence for all samples for 2 minutes; during this time the fluorescence baseline was determined for the first 10 seconds. The desired amount of compound was then automatically transferred to the wells, and the fluorescence was continuously monitored for the remainder of the time. […]

[1] = tested on: Vector-only transfected 293 cells; assay: FLIPR cell-based assay, vector-only (mock) transfected control cells; design: species or system human; conditions: vector-only transfected HEK 293 cells expressing mouse Gα15
Description: as §1

| stimulation of PFI-019 (fluorescence response) (PFI-019) | Compound | response of vector-only transfected 293 cells (fluorescence) [1] |
| --- | --- | --- |
| stimulation of PFI-019 | Nc1nc(Cl)nc2c1ncn2[C@@H]1O[C@H](COP(=O)([O-])OP(=O)([O-])OP(=O)([O-])[O-])[C@@H](O)[C@H]1O.[Na+].[Na+].[Na+].[Na+] [2-chloro-ATP, 2-chloroadenosine triphosphate tetrasodium] | no measurable response |
| stimulation of PFI-019 | O=c1ccn([C@@H]2O[C@H](COP(=O)(O)OP(=O)(O)OP(=O)(O)O)[C@@H](O)[C@H]2O)c(=O)[nH]1 [UTP, Uridine triphosphate] | no measurable response |
